{
  "source": "the SangsterLogP compilation",
  "data": [
    {"experiment": "method code SF-AS, from DOI: 10.1002/jps.2600771105, PMID: 3225751", "details": "pH 1.0", "values": [
      {"smiles": "CC(C)(C)C1(Cl)C(=O)NC(=O)NC1=O", "logD": 0.82},
      {"smiles": "CCC1(CC)C(=O)NC(=S)NC1=O", "logD": 1.5},
      {"smiles": "CC1(C)C(=O)NC(=S)NC1=O", "logD": 0.5},
      {"smiles": "CCC1(C(C)(C)C)C(=O)NC(=O)NC1=O", "logD": 1.38},
      {"smiles": "CC(C)C1(C(C)C)C(=O)NC(=O)NC1=O", "logD": 1.56},
      {"smiles": "CC(C)C1(C)C(=O)NC(=O)NC1=O", "logD": 0.54},
      {"smiles": "CC(C)(C)C1(C)C(=O)NC(=O)NC1=O", "logD": 0.8},
      {"smiles": "CC(C)C1C(=O)NC(=O)NC1=O", "logD": -0.02},
      {"smiles": "C=CCC1(C(C)(C)C)C(=O)NC(=O)NC1=O", "logD": 1.64},
      {"smiles": "CCCCC1(CCCC)C(=O)NC(=O)NC1=O", "logD": 2.7},
      {"smiles": "CCCCC1(CC)C(=O)NC(=O)NC1=O", "logD": 1.73},
      {"smiles": "CC(C)(C)C1C(=O)NC(=O)NC1=O", "logD": 0.28},
      {"smiles": "CCCC1(CCC)C(=O)NC(=O)NC1=O", "logD": 1.75},
      {"smiles": "CCCC1(CCC)C(=O)NC(=S)NC1=O", "logD": 2.66}
    ]}
  ]
}
